The record followed here is US8431563B2 (priority 2010, dated 2013).

As a reminder, the IC50 is the midpoint of a concentration-inhibition curve.

Test [1] concerns the target T1, GKRP (Glucokinase Regulatory Protein) with human His-hepatic GK (Homo sapiens, UniProt Q14397).
T1 sequence (Q14397 1-625): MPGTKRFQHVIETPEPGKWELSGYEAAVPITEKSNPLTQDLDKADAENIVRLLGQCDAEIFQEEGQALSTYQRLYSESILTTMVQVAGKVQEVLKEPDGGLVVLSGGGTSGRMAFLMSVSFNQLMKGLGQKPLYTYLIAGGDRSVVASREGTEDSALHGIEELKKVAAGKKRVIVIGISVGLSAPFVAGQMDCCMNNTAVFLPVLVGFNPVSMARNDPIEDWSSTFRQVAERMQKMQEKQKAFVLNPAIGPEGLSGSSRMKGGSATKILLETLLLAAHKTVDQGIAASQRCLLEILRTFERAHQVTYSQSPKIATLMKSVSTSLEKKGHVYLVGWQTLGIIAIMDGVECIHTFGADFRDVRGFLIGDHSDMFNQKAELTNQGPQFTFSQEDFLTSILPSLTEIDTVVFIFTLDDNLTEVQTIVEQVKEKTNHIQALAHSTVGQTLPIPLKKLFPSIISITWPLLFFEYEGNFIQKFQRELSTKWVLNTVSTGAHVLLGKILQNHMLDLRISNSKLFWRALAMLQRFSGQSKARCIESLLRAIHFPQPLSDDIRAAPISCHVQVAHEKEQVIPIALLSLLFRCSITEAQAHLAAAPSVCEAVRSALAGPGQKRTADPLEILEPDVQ
Nature of the test: biochemical. The protocol:
GKRP LC MS/MS-2 Biochemical Assay
This assay is used to directly measure the formation of ^13C-glucose-6-phosphate from ^13C-glucose by LC MS/MS. Begin by preparing the following solutions: Compound Buffer (CB): 50 mM Tris, pH 7.5/4 mM MgCl2/6% DMSO/fresh 10 mM DTT from 1M frozen stock. Enzyme Buffer (EB): 50 mM Tris, pH 7.5/4 mM MgCl2/6% DMSO/fresh 0.1% BSA/fresh 0.01% Brij-35 (10% BSA and 1% Brij-35 stock). GK (Glucokinase) Working Stock (5×): Dilute human His-hepatic GK to 30 nM in EB buffer. […] After 30 minutes add 10 μl of GK Working Stock (5×). Re-seal the plate and incubate for another 30 minutes at room temperature while mixing. After the second 30 minutes, stop the reaction by the addition of 50 μl of 100% acetonitrile, seal, and mix for 5-10 minutes. Run 10 μl of this sample through the LC MS/MS (API 3200, Applied Biosystems, Carlsbad, Calif.).

For test [2], the target named is T2, interaction between glucokinase (GK) and glucokinase regulatory protein (GKRP) (Homo sapiens, UniProt Q14397).
T2 sequence (Q14397 1-625): T1 sequence (Q14397 1-625)
In words: biochemical. Type of test: binding. The protocol: GK-GKRP Binding Assay Protocol
This assay is used to directly measure the interaction between glucokinase (GK) and glucokinase regulatory protein (GKRP). Begin by preparing the following solutions. Assay Buffer: 20 mM Tris, pH 7.5/0.05% BSA/1 mM DTT/1 μM sorbitol-6-phosphate. […] Combine the following reagents in a white 96-well half area plate. Pipette 14 μl of the diluted avi-tagged GKRP into each well. Add 1 μl of compound to be tested and incubate at room temperature for 20 minutes. After 20 minutes, add 5 μl of assay buffer containing 6 nM GK-fluorescein. […] Incubate in a dark room for 2 hours at room temperature. After 2 hours read the plate using an Envision plate reader (Perkin Elmer, Waltham Mass.).

Where [3] appears, read: 13C-glucose-6-phosphate formation, 280 nM GKRP (10×), 30 nM GK (5×), read-out: GK-GKRP EC50 (LC MS/MS-2).
Setting [4] is: avi-tagged GKRP, GK-fluorescein, AlphaScreen beads, read-out: GK-GKRP IC50 (Binding).
Where [5] appears, read: GK-GKRP EC50 (LC MS/MS-2), 13C-glucose-6-phosphate formation, 280 nM GKRP (10×), 30 nM GK (5×).

Like-named read-outs stand apart in the source and are kept apart here.

As to `O=S(=O)(c1ccccc1)N1CCN(c2ncc(C(O)(C(F)(F)F)C(F)(F)F)cn2)[C@@H](CN2C3COCC2C(O)C3)C1` (mixture of isomers) [Example 80, 8-(((2S)-4-(phenylsulfonyl)-1-(5-(2,2,2-trifluoro-1-hydroxy-1-(trifluoromethyl)ethyl)-2-pyrimidinyl)-2-piperazinyl)methyl)-3-oxa-8-azabicyclo[3.2.1]octan-6-ol], the EC50 in test [1] (setting [3]) was 136 nM. In addition, the IC50 in test [2] (setting [4]) was 125 nM.

`CC(O)(c1ccc(N2CCN(S(=O)(=O)c3cccs3)C[C@@H]2CN2CC3(COC3)C2)cc1)C(F)(F)F` (mixture of isomers) [Example 84, 1,1,1-trifluoro-2-(4-((2S)-2-(2-oxa-6-azaspiro[3.3]hept-6-ylmethyl)-4-(2-thiophenylsulfonyl)-1-piperazinyl)phenyl)-2-propanol]: the EC50 in test [1] (GK-GKRP EC50 (LC MS/MS-2)) amounted to 659 nM. For the same molecule, the IC50 in test [2] (setting [4]) turned out to be 667 nM.

On to `CC1CS(=O)(=O)CCN1C[C@H]1CN(S(=O)(=O)c2cccs2)CCN1c1ccc(C(C)(O)C(F)(F)F)cc1` (mixture of isomers) [Example 86, 1,1,1-trifluoro-2-(4-((2S)-2-((3-methyl-1,1-dioxido-4-thiomorpholinyl)methyl)-4-(2-thiophenylsulfonyl)-1-piperazinyl)phenyl)-2-propanol], for which the EC50 in test [1] (setting [3]) was 115 nM. Moreover, the IC50 in test [2] (setting [4]) was 61 nM.

Turning to `CC(O)(c1ccc(N2CCN(S(=O)(=O)c3cccs3)C[C@@H]2CN2CCS(=O)(=O)CC2C2CC2)cc1)C(F)(F)F` (mixture of isomers) [Example 87, 2-(4-((2S)-2-((3-cyclopropyl-1,1-dioxido-4-thiomorpholinyl)methyl)-4-(2-thiophenylsulfonyl)-1-piperazinyl)phenyl)-1,1,1-trifluoro-2-propanol], the EC50 in test [1] (setting [3]) worked out at 246 nM. For the same molecule, the IC50 in test [2] (setting [4]) was 229 nM.

Take `C[C@H]1COCCN1C[C@H]1CN(S(=O)(=O)c2nccs2)CCN1c1ccc(C(C)(O)C(F)(F)F)cc1` (mixture of isomers) [Example 102, 1,1,1-trifluoro-2-(4-((2S)-2-(((3S)-3-methyl-4-morpholinyl)methyl)-4-(1,3-thiazol-2-ylsulfonyl)-1-piperazinyl)phenyl)-2-propanol]: the EC50 in test [1] (setting [3]) amounted to 137 nM. In test [2] (setting [4]), the IC50 came out at 134 nM.

With `CCOC(=O)CC1COCCN1C[C@H]1CN(S(=O)(=O)c2cccs2)CCN1c1ccc(C(C)(O)C(F)(F)F)cc1` (mixture of isomers) [Example 113], the EC50 in test [1] (setting [3]) was found to be 308 nM. For the same molecule, the half-maximal inhibitory concentration (IC50) in test [2] (setting [4]) was 333 nM.

Take `CN(C)C(=O)CC1COCCN1C[C@H]1CN(S(=O)(=O)c2cccs2)CCN1c1ccc(C(C)(O)C(F)(F)F)cc1` (mixture of isomers) [Example 114, N,N-dimethyl-2-(4-(((2S)-4-(2-thiophenylsulfonyl)-1-(4-(2,2,2-trifluoro-1-hydroxy-1-methylethyl)phenyl)-2-piperazinyl)methyl)-3-morpholinyl)acetamide]: the EC50 in test [1] (setting [3]) was determined as 124 nM. Moreover, in test [2] (setting [4]), the IC50 amounted to 90 nM.

Consider `CC(O)(c1ccc(N2CCN(S(=O)(=O)c3cccs3)C[C@@H]2COCc2ccco2)cc1)C(F)(F)F` (mixture of isomers) [Example 116, 1,1,1-trifluoro-2-(4-((2R)-2-((2-furanylmethoxy)methyl)-4-(2-thiophenylsulfonyl)-1-piperazinyl)phenyl)-2-propanol], for which, in test [1] (setting [3]), the EC50 was 103 nM. The IC50 in test [2] (setting [4]) came to 284 nM.

`CC1(COC[C@H]2CN(S(=O)(=O)c3cccs3)CCN2c2ccc(C(C)(O)C(F)(F)F)cc2)COC1` (mixture of isomers) [Example 117, 1,1,1-trifluoro-2-(4-((2R)-2-(((3-methyl-3-oxetanyl)methoxy)methyl)-4-(2-thiophenylsulfonyl)-1-piperazinyl)phenyl)-2-propanol]: in test [1] (setting [3]), the EC50 worked out at 463 nM. The IC50 in test [2] (setting [4]) was 467 nM.

On to `CC(O)(c1ccc(N2CCN(S(=O)(=O)c3cccs3)C[C@@H]2COCC2CCCO2)cc1)C(F)(F)F` (mixture of isomers) [Example 118, 1,1,1-trifluoro-2-(4-((2R)-2-((tetrahydro-2-furanylmethoxy)methyl)-4-(2-thiophenylsulfonyl)-1-piperazinyl)phenyl)-2-propanol], for which, in test [1] (setting [3]), the EC50 turned out to be 1110 nM. Moreover, the IC50 in test [2] (setting [4]) stood at 570 nM.

On to `Cn1cnc(COC[C@H]2CN(S(=O)(=O)c3cccs3)CCN2c2ccc(C(C)(O)C(F)(F)F)cc2)c1` (mixture of isomers) [Example 119, 1,1,1-trifluoro-2-(4-((2R)-2-(((1-methyl-1H-imidazol-4-yl)methoxy)methyl)-4-(2-thiophenylsulfonyl)-1-piperazinyl)phenyl)-2-propanol], for which, in test [1] (setting [3]), the EC50 was determined as 169 nM. Moreover, in test [2] (setting [4]), the IC50 was found to be 392 nM.

Regarding `CC(O)(c1ccc(N2CCN(S(=O)(=O)c3cccs3)C[C@@H]2CNC2CCOCC2)cc1)C(F)(F)F` (mixture of isomers) [Example 120, 1,1,1-trifluoro-2-(4-((2S)-2-((tetrahydro-2H-pyran-4-ylamino)methyl)-4-(2-thiophenylsulfonyl)-1-piperazinyl)phenyl)-2-propanol], the EC50 in test [1] (setting [5]) was determined as 656 nM. Besides, the concentration for half-maximal inhibition (IC50) in test [2] (setting [4]) came to 493 nM.

`C[C@H]1COCCN1C[C@H]1CN(S(=O)(=O)c2ccc(N)nc2)CCN1c1ccc(C(C)(O)C(F)(F)F)cc1` (mixture of isomers) [Example 125, 2-(4-((2S)-4-((6-amino-3-pyridinyl)sulfonyl)-2-(((3S)-3-methyl-4-morpholinyl)methyl)-1-piperazinyl)phenyl)-1,1,1-trifluoro-2-propanol]: the EC50 in test [1] (setting [3]) was determined as 20 nM. In test [2] (setting [4]), the half-inhibitory concentration (IC50) amounted to 3 nM.

Take `CC(O)(c1cnc(N2CCN(S(=O)(=O)c3ccc(N)nc3)C[C@@H]2CC2CCOCC2)nc1)C(F)(F)F` (mixture of isomers) [Example 131]: the EC50 in test [1] (setting [3]) stood at 102 nM. Further, the half-maximal inhibitory concentration (IC50) in test [2] (setting [4]) was 124 nM.

With `CC(O)(c1cnc(N2CCN(S(=O)(=O)c3ccc(N)s3)C[C@@H]2CC2CCOCC2)nc1)C(F)(F)F` (mixture of isomers) [Example 135, 2-(2-((2S)-4-((5-amino-2-thiophenyl)sulfonyl)-2-(tetrahydro-2H-pyran-4-ylmethyl)-1-piperazinyl)-5-pyrimidinyl)-1,1,1-trifluoro-2-propanol], the EC50 in test [1] (setting [3]) was determined as 108 nM. Besides, in test [2] (setting [4]), the half-inhibitory concentration (IC50) worked out at 55 nM.

On to `CC(O)(c1ccc(N2CCN(S(=O)(=O)c3ccc(N)s3)C[C@@H]2Cc2ccccc2)cc1)C(F)(F)F` (mixture of isomers) [Example 136, 2-(4-((2S)-4-((5-amino-2-thiophenyl)sulfonyl)-2-benzyl-1-piperazinyl)phenyl)-1,1,1-trifluoro-2-propanol], for which the EC50 in test [1] (setting [3]) was found to be 146 nM. The IC50 in test [2] (setting [4]) stood at 250 nM.

As for `C[C@H]1CN(S(=O)(=O)c2ccc(N)s2)CCN1c1ncc(C(C)(O)C(F)(F)F)cn1` (mixture of isomers) [Example 137, 2-(2-((2S)-4-((5-amino-2-thiophenyl)sulfonyl)-2-methyl-1-piperazinyl)-5-pyrimidinyl)-1,1,1-trifluoro-2-propanol], the EC50 in test [1] (GK-GKRP EC50 (LC MS/MS-2)) came out at 658 nM. The IC50 in test [2] (GK-GKRP IC50 (Binding)) was found to be 281 nM.

On to `CC(O)(c1ccc(N2CCN(S(=O)(=O)c3cccs3)C[C@@H]2CN2C3CCCC2CC(=O)C3)cc1)C(F)(F)F` (mixture of isomers) [Example 140, 9-(((2S)-4-(2-thiophenylsulfonyl)-1-(4-(2,2,2-trifluoro-1-hydroxy-1-methylethyl)phenyl)-2-piperazinyl)methyl)-9-azabicyclo[3.3.1]nonan-3-one], for which the EC50 in test [1] (setting [5]) is 15 nM. In addition, the IC50 in test [2] (GK-GKRP IC50 (Binding), avi-tagged GKRP, GK-fluorescein, AlphaScreen beads) turned out to be 7 nM.
